Data from patent US20250296955A1, “PIN1 TARGETING COMPOUNDS AND DEGRADERS AND METHODS THEREOF” (The Regents of the University of California, priority 2024, published 2025).
Blank lines part the entries; values can stand above or below the compound they belong to. Where a SMILES comes first, the peptide text is derived from it. [ ]: non-standard residue; d: D form. The star is where a group is joined. Phe(4-NO2) = N[C@@H](Cc1ccc([N+](=O)[O-])cc1)C(=O)O; Trp(6-Cl) = N[C@@H](Cc1c[nH]c2cc(Cl)ccc12)C(=O)O; Trp(7-Me) = Cc1cccc2c(C[C@H](N)C(=O)O)c[nH]c12; Phe(3-CN) = N#Cc1cccc(C[C@H](N)C(=O)O)c1; 4Pal = N[C@@H](Cc1ccncc1)C(=O)O; Pip = O=C(O)[C@@H]1CCCCN1; ClAc = O=C(CCl)*

How the values were obtained:
Pin1 [1] = target: T1, Pin1 (Homo sapiens, UniProt Q13526); experiment: DELFIA displacement assay (displacement of biotinylated D-peptide from 6His-Pin1); format: binding; parameters: human Pin1 (residues 1-163); made in house; host or cells: E. coli BL21 (DE3) gold pLysS
Excerpt: (§1) Important to the success of structure activity relations studies, robust biochemical, biophysical, and cell-based assays were implemented that enabled rapid and iterative evaluations of test Pin1 targeting agents. First, the DELFIA (Dissociation-enhanced lanthanide fluorescent immunoassay) assay platform was used to derive a robust heterogeneous assay to monitor the ability of test agents to displace the binding between Pin1 and the D-Peptide (Table 1), which was obtained in a biotinylated form (FIG. 10). […] Second, for an orthogonal biophysical assay denaturation thermal shift measurements were used. Pin1 was incubated with vehicle control (buffer with 1% DMSO), or test agents at protein: ligand ratio of 1:2 (20 μM protein-40 μM compound) for 10 min at 10° C. in the presence of the fluorescent dye SYPRO Orange. The samples were gradually exposed to increasing temperature (linear gradient from 10° C. to 95° C.), causing the protein to unfold. This unfolding allowed the fluorescent dye to bind to the protein's exposed hydrophobic residues, resulting in an increase in fluorescence. The thermal shift assay measures the protein's melting temperature (Tm), which is the temperature at which the protein denatures by 50%. Ligands can affect a protein target to thermal denaturation, which could manifest in a positive or negative shift in the protein denaturation temperature (ΔTm) (Bai N, Roder H, Dickson A, & Karanicolas J (2019) Scientific Reports 9; and Kranz J K & Schalk-Hihi C (2011) Fragment-Based Drug Design: Tools, Practical Approaches, and Examples 493:277-298). Using these two assays, a series of commercially available Pin1 inhibitors were profiled (Table 1). The non-covalent agent D-peptide resulted only moderately active, with an IC50 value of ˜3 μM that closely resembled the dissociation constant for this agent determined via isothermal titration calorimetry, and the ˜ 3 μM IC50 value as reported by a fluorescence polarization assay (Pinch B J, et al. (2020) Nat Chem Biol 16(9):979-987). […] (Table 1) was observed.
For the reported covalent agents such as sulfopin (Dubiella C, et al. (2021) Nat Chem Biol 17(9):954-963), BJP-07-017-3 (Pinch B J, et al. (2020) Nat Chem Biol 16(9):979-987), or KPT-6566 (Campaner E, et al. (2017) Nat Commun 8:15772), a 6-h pre-incubation period was included in the DELFIA assay to allow the covalent reaction to take place. For those agents, IC50 values that fell in the low nanomolar range were observed, consistent with what was reported previously for those compounds. […] To make those determinations in a broader panel of cancer cell lines three pancreatic cancer cell lines, BxPC3, MIA-PaCa-2, and PANC-1, the breast cancer cell line MDA-MB-231, the prostate cancer cell line PC3, and the non-small cell lung cancer cell line A549 were chosen. Each cell line represents various states of KRAS activating mutations (for example BxPC3 is wt-KRAS, while MIAPaCa2 carries the KRAS(G12C) mutation, and the PANC-1 the KRAS(G12D) (Miquel M, Zhang S, & Pilarsky C (2021) Front Cell Dev Biol 9:748631), A549 is KRAS(G12S) (Wang H, et al. (2019) EBioMedicine 49:106-117), MDA-MB-231 is KRAS(G13D) (Kim R K, et al. (2015) Exp Mol Med 47(1):e137), PC3 is wt-KRAS (Bouali S, et al. (2009) Oncol Rep 21(3):731-735). Pin1 protein levels in these cell lines were established using a specific Pin1 antibody in western blot analyses (FIG. 1A). The data confirmed that all these selected human cancer cell lines expressed a significant level of Pin1 (FIG. 1A).
Each well of 96-well streptavidin-coated plates (PerkinElmer) was incubated with 100 μL of 200 nM biotinylated D-peptide for 2 h and washed 3 times with a wash solution (PerkinElmer). Subsequently, a mixture containing Pin1, and a serial dilution of the test compounds were pre-incubated for 6 h. Eu-N1-labeled anti-6x-His antibody (PerkinElmer, 1:2000) was then added to this mixture and further incubated in the biotinylated D-peptide-bound plates for another 2 h. […]

Pin1 [2] = target: T1, Pin1; experiment: Denaturation thermal shift assay (SYPRO Orange); format: binding; parameters: human Pin1 (residues 1-163); made in house; host or cells: E. coli BL21 (DE3) gold pLysS
Excerpt: as §1
Thermal shift assays for Pin1 alone and in the presence of the inhibitors were obtained with a BioRad CFX Connect Real-Time PCR Detection System. Each data point was collected in quadruplicate. Each sample was prepared using buffer 50 mM Phosphate pH 7.5, 150 mM NaCl, 1% DMSO. Protein: ligand ratio used was 1:2 (20 μM protein-40 μM compound), and SYPRO Orange was used. Incubation of the Pin1 protein with the compounds was performed at 10° C. for 10 min. Samples were then heated from 10 to 95° C. with heating increments of 0.05° C., over 30 min. Fluorescence intensity was measured within the excitation/emission ranges 470-505/540-700 nm.

[3] = Table 3, single transition, ± SE of four replicates
[4] = Table 4, single transition, ± SE of four replicates
[5] = Table 5, only one transition given

T1 sequence (Q13526 whole entry, the tested form may be a part): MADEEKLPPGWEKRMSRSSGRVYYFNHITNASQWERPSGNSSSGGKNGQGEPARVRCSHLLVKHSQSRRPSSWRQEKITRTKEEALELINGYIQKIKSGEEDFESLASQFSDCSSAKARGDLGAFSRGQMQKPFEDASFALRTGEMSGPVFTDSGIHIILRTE

SMILES: Cc1cccc2c(C[C@H](NC(=O)CCl)C(=O)N3CCCC[C@H]3C(=O)N[C@@H](Cc3c[nH]c4ccccc34)C(N)=O)c[nH]c12 [158H7] (ClAc-[Trp(7-Me)]-[Pip]-Trp-NH2)
- IC50 (Pin1 [1]; Table 4, ± SD from duplicates): 91 ± 9 nM
- ΔTm (° C.) (Pin1 [2]; [4]): −10.11 ± 0.20 °C

SMILES: O=C(CCl)N[C@@H](Cc1c[nH]c2ccccc12)C(=O)N1CCCC[C@H]1C(=O)NCCc1c[nH]c2cc(Cl)cc(Cl)c12 [164A3]
- IC50 (Pin1 [1]; Table 5): 1180 ± 45 nM
- ΔTm (° C.) (Pin1 [2]; [5]): −13.68 ± 0.20 °C

SMILES: NC(=O)[C@H](Cc1c[nH]c2cc(Cl)ccc12)NC(=O)[C@@H]1CCCCN1C(=O)[C@H](Cc1c[nH]c2ccccc12)NC(=O)CCl [158H12] (ClAc-Trp-[Pip]-[Trp(6-Cl)]-NH2)
- IC50 (Pin1 [1]; Table 4, ± SD from duplicates): 31 ± 1 nM
- ΔTm (° C.) (Pin1 [2]; [4]): −9.21 ± 0.08 °C

SMILES: O=C(NCCc1c[nH]c2cc(Cl)cc(Cl)c12)[C@@H]1CCCCN1C(=O)[C@@H]1Cc2c([nH]c3ccccc23)CN1C(=O)CCl [164A5]
- IC50 (Pin1 [1]; Table 4, ± SD from duplicates): 433 ± 65 nM
- share of first denaturation transition (Pin1 [2]; Table 4, percentage in brackets after first ΔTm): 70%
- share of second denaturation transition (Pin1 [2]; Table 4, percentage in brackets after second ΔTm): 30%
- ΔTm (° C.), first of two denaturation transitions (Pin1 [2]; Table 4, two transitions observed, likely incomplete complex formation): +0.66 ± 0.28 °C
- ΔTm (° C.) (Pin1 [2]; [5]): +0.66 ± 0.28 °C

SMILES: N#Cc1cccc(C[C@H](NC(=O)CCl)C(=O)N2CCCC[C@H]2C(=O)N[C@@H](Cc2c[nH]c3ccccc23)C(N)=O)c1 [158G3] (ClAc-[Phe(3-CN)]-[Pip]-Trp-NH2)
- IC50 (Pin1 [1]; Table 3, ± SD from duplicates): 132 ± 21 nM
- ΔTm (° C.) (Pin1 [2]; [3]): −10.06 ± 0.07 °C

SMILES: Cc1cccc2c(C[C@H](NC(=O)[C@@H]3CCCCN3C(=O)[C@@H]3Cc4c([nH]c5ccccc45)CN3C(=O)CCl)C(N)=O)c[nH]c12 [164A11]
- ΔTm (° C.) (Pin1 [2]; [4]): +10.45 ± 0.07 °C

SMILES: NC(=O)[C@H](Cc1c[nH]c2ccccc12)NC(=O)[C@@H]1CCCCN1C(=O)[C@H](Cc1ccc([N+](=O)[O-])cc1)NC(=O)CCl [158G2] (ClAc-[Phe(4-NO2)]-[Pip]-Trp-NH2)
- IC50 (Pin1 [1]; Table 3, ± SD from duplicates): 134 ± 13 nM
- ΔTm (° C.) (Pin1 [2]; [3]): −10.16 ± 0.04 °C

More lines, now with the values ahead:

- IC50 (Pin1 [1]; Table 3, ± SD from duplicates): 99 ± 4 nM
- ΔTm (° C.) (Pin1 [2]; [3]): −9.18 ± 0.07 °C
SMILES: NC(=O)[C@H](Cc1c[nH]c2ccccc12)NC(=O)[C@@H]1CCCCN1C(=O)[C@H](Cc1ccncc1)NC(=O)CCl [158H1] (ClAc-[4Pal]-[Pip]-Trp-NH2)

- IC50 (Pin1 [1]; Table 3, ± SD from duplicates): 119 ± 6 nM
- ΔTm (° C.) (Pin1 [2]; [3]): −9.29 ± 0.04 °C
SMILES: NC(=O)[C@H](Cc1c[nH]c2ccccc12)NC(=O)[C@@H]1CCCCN1C(=O)[C@H](Cc1ccc(O)cc1)NC(=O)CCl [158G5] (HELM PEPTIDE1{[O=C(CCl)[*:2]].Y.[O=C([C@@H]1CCCCN1[*:1])[*:2]].W.[am]}$$$$V2.0)

- ΔTm (° C.) (Pin1 [2]; Table 2, ± SE of four replicates): −10.66 ± 0.04 °C
SMILES: CN(C(=O)CCl)[C@@H](Cc1ccccc1)C(=O)N1CCCC[C@H]1C(=O)N[C@@H](Cc1c[nH]c2ccccc12)C(N)=O [158D11] (HELM PEPTIDE1{[O=C(CCl)[*:2]].[meF].[O=C([C@@H]1CCCCN1[*:1])[*:2]].W.[am]}$$$$V2.0)
